Data: patent US10239849B2 (Merck Sharp & Dohme Corp., priority 2015, dated 2019)
pEC50: −log10 of the molar value.

What was measured:
[1] = target: T1, glutathione-S-transferase (GST) tagged LXRbeta LBD (ligand binding domain) (Homo sapiens, UniProt P55055); experiment: LanthaScreen TR-FRET Liver X Receptor Coactivator Assay, LXR beta-LBD; assay type: biochemical; conditions: for Emax: efficacy in relation to reference dual agonist T1317, read-out: LXR beta activity at max dose (%) (Emax); for pEC50: potency (Inflection Point) of co-activator recruitment, TR-FRET, read-out: LXR beta IP
T1 construct: purchased Invitrogen pv4658.pps
T1 sequence (P55055 222-460 limits assumed): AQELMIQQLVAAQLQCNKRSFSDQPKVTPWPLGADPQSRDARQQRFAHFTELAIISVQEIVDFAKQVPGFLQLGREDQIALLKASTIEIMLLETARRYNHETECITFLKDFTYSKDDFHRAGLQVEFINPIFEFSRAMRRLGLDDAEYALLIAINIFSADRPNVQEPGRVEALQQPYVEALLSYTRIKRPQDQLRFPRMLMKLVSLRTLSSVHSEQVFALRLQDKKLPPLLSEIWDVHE
Outline: (§1)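 Test ligands were combined with the receptor LBD, after which terbium-labelled anti-GST antibody and a fluorescein-tagged coactivator peptide were introduced together. Plates sat at room temperature, then time-resolved FRET was measured.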

[2] = target: T2, glutathione-S-transferase (GST) tagged LXRalpha LBD (ligand binding domain) (Homo sapiens, UniProt Q13133); experiment: LanthaScreen TR-FRET Liver X Receptor Coactivator Assay, LXR alpha-LBD; assay type: biochemical; conditions: for Emax: efficacy in relation to reference dual agonist T1317, read-out: LXR alpha activity at max dose (%) (Emax); for LXR alpha IP (nM) / pEC50: potency (Inflection Point) of co-activator recruitment, TR-FRET; for pEC50: read-out: LXR alpha IP
T2 construct: purchased Invitrogen pv4655
T2 sequence (Q13133 209-447 limits assumed): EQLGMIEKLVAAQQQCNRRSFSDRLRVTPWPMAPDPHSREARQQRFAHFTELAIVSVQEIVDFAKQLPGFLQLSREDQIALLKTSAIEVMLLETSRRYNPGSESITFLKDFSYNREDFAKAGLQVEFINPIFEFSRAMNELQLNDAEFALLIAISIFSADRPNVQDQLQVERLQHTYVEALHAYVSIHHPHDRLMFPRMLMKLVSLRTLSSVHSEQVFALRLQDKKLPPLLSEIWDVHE
Outline: as §1

Row | SMILES | Emax [1] [%] | pEC50 [1] | Emax [2] [%] | LXR alpha IP (nM) [2] | pEC50 [2]
1 | CN(C)C(=O)c1ccc(-c2ccc(N3CCN(C(=O)c4ccccc4C(F)(F)F)CC3)cc2)cc1Cl [Example 4-17, 3-chloro-N,N-dimethyl-4′-(4-{[2-(trifluoromethyl)phenyl]carbonyl}piperazin-1-yl)biphenyl-4-carboxamide] | 80 | 5.86 | 9 | No IP | –
2 | CC(C)C(O)(C(=O)N1CCN(c2ccc(-c3ccc(C(=O)N(C)C)c(Cl)c3)cc2)CC1)C(F)(F)F (centres unmarked) [Example 4-18, 3-chloro-4′-{4-[2-hydroxy-3-methyl-2-(trifluoromethyl)butanoyl]piperazin-1-yl}-N,N-dimethylbiphenyl-4-carboxamide] | 65 | 6.59 | 20 | – | 5.89
3 | CN(C)C(=O)c1ccc(-c2ccc(N3CCN(C(=O)c4c(F)cccc4Cl)CC3)cc2)cc1Cl [Example 4-19, 3-chloro-4′-{4-[(2-chloro-6-fluorophenyl)carbonyl]piperazin-1-yl}-N,N-dimethylbiphenyl-4-carboxamide] | 93 | 5.90 | 20 | – | 4.77
4 | CN(CCO)C(=O)c1ccc(-c2cnc(N3CCN(C(=O)OC(C)(C)C)CC3)c(C#N)c2)cc1Cl [Example 5-1, tert-butyl-4-(5-{3-chloro-4-[(2-hydroxyethyl)(methyl)carbamoyl]phenyl}-3-cyanopyridin-2-yl)piperazine-1-carboxylate] | 80 | 7.40 | 68 | – | 5.90
5 | CC(C)(C)OC(=O)N1CCN(c2ncc(-c3ccc(C(N)=O)c(Cl)c3)cc2C#N)CC1 [Example 5-2, tert-butyl 4-[5-(4-carbamoyl-3-chlorophenyl)-3-cyanopyridin-2-yl]piperazine-1-carboxylate] | 94 | 7.03 | 66 | – | 5.69
6 | CNC(=O)c1ccc(-c2cnc(N3CCN(C(=O)OC(C)(C)C)CC3)c(C#N)c2)cc1Cl [Example 5-3, tert-butyl 4-{5-[3-chloro-4-(methylcarbamoyl)phenyl]-3-cyanopyridin-2-yl}piperazine-1-carboxylate] | 82 | 6.75 | 76 | – | 4.47
7 | CC(C)(C)OC(=O)N1CCN(c2ncc(-c3ccc(C(=O)N4CCC4)c(Cl)c3)cc2C#N)CC1 [Example 5-4, tert-butyl 4-{5-[4-(azetidin-1-ylcarbonyl)-3-chlorophenyl]-3-cyanopyridin-2-yl}piperazine-1-carboxylate] | 71 | 5.82 | 39 | – | 4.67
8 | CCN(C)C(=O)c1ccc(-c2cnc(N3CCN(C(=O)OC(C)(C)C)CC3)c(C#N)c2)cc1Cl [Example 5-5, tert-butyl 4-(5-{3-chloro-4-[ethyl(methyl)carbamoyl]phenyl}-3-cyanopyridin-2-yl)piperazine-1-carboxylate] | 76 | 7.06 | 54 | – | 5.57
9 | CN(C)NC(=O)c1ccc(-c2cnc(N3CCN(C(=O)OC(C)(C)C)CC3)c(C#N)c2)cc1Cl [Example 5-6, tert-butyl 4-(5-{3-chloro-4-[(2,2-dimethylhydrazino)carbonyl]phenyl}-3-cyanopyridin-2-yl)piperazine-1-carboxylate] | 77 | 6.36 | 43 | – | 5.06
10 | CON(C)C(=O)c1ccc(-c2cnc(N3CCN(C(=O)OC(C)(C)C)CC3)c(C#N)c2)cc1Cl [Example 5-7, tert-butyl 4-(5-{3-chloro-4-[methoxy(methyl)carbamoyl]phenyl}-3-cyanopyridin-2-yl)piperazine-1-carboxylate] | 69 | 7.09 | 39 | – | 5.58
11 | CN(CC#N)C(=O)c1ccc(-c2cnc(N3CCN(C(=O)OC(C)(C)C)CC3)c(C#N)c2)cc1Cl [Example 5-8, tert-butyl 4-(5-{3-chloro-4-[(cyanomethyl) (methyl)carbamoyl]phenyl}-3-cyanopyridin-2-yl)piperazine-1-carboxylate] | 91 | 6.77 | 58 | – | 4.83
12 | CC(C)(C)OC(=O)N1CCN(c2ncc(-c3ccc(C(=O)N4CCCC4)c(Cl)c3)cc2C#N)CC1 [Example 5-9, tert-butyl 4-{5-[3-chloro-4-(pyrrolidin-1-ylcarbonyl)phenyl]-3-cyanopyridin-2-yl}piperazine-1-carboxylate] | 71 | 6.56 | 48 | – | 4.84
13 | CC(C)(C)OC(=O)N1CCN(c2ncc(-c3ccc(C(=O)NCCCO)c(Cl)c3)cc2C#N)CC1 [Example 5-10, tert-butyl 4-(5-{3-chloro-4-[(3-hydroxypropyl)carbamoyl]phenyl}-3-cyanopyridin-2-yl)piperazine-1-carboxylate] | 63 | 5.96 | 37 | – | 5.57
14 | CC(C)(C)OC(=O)N1CCN(c2ncc(-c3ccc(C(=O)N4CCCCC4)c(Cl)c3)cc2C#N)CC1 [Example 5-11, tert-butyl 4-{5-[3-chloro-4-(piperidin-1-ylcarbonyl)phenyl]-3-cyanopyridin-2-yl}piperazine-1-carboxylate] | 59 | 6.52 | 89 | – | 4.93
15 | CC(C)(C)OC(=O)N1CCN(c2ncc(-c3ccc(C(=O)N4CC[C@@H](O)C4)c(Cl)c3)cc2C#N)CC1 [Example 5-12, tert-butyl 4-[5-(3-chloro-4-{[(3R)-3-hydroxypyrrolidin-1-yl]carbonyl}phenyl)-3-cyanopyridin-2-yl]piperazine-1-carboxylate] | 60 | 6.32 | 37 | – | 5.07
16 | CC(C)(C)OC(=O)N1CCN(c2ncc(-c3ccc(C(=O)N4CC[C@H](O)C4)c(Cl)c3)cc2C#N)CC1 [Example 5-13, tert-butyl 4-[5-(3-chloro-4-{[(3S)-3-hydroxypyrrolidin-1-yl]carbonyl}phenyl)-3-cyanopyridin-2-yl]piperazine-1-carboxylate] | 62 | 6.58 | 44 | – | 5.16
17 | CC(C)(C)OC(=O)N1CCN(c2ncc(-c3ccc(C(=O)N4CCOCC4)c(Cl)c3)cc2C#N)CC1 [Example 5-14, tert-butyl 4-{5-[3-chloro-4-(morpholin-4-ylcarbonyl)phenyl]-3-cyanopyridin-2-yl}piperazine-1-carboxylate] | 63 | 6.48 | 38 | – | 4.90
18 | CN(CCCO)C(=O)c1ccc(-c2cnc(N3CCN(C(=O)OC(C)(C)C)CC3)c(C#N)c2)cc1Cl [Example 5-15, tert-butyl 4-(5-{3-chloro-4-[(3-hydroxypropyl) (methyl)carbamoyl]phenyl}-3-cyanopyridin-2-yl)piperazine-1-carboxylate] | 70 | 6.58 | 42 | – | 5.16
19 | CC(C)(C)OC(=O)N1CCN(c2ncc(-c3ccc(C(=O)NCc4ncc[nH]4)c(Cl)c3)cc2C#N)CC1 [Example 5-16, tert-butyl 4-(5-{3-chloro-4-[(1H-imidazol-2-ylmethyl)carbamoyl]phenyl}-3-cyanopyridin-2-yl)piperazine-1-carboxylate] | 91 | 7.37 | 68 | – | 5.84
20 | CC(C)(C)OC(=O)N1CCN(c2ncc(-c3ccc(C(=O)N4CCC(O)CC4)c(Cl)c3)cc2C#N)CC1 [Example 5-17, tert-butyl 4-(5-{3-chloro-4-[(4-hydroxypiperidin-1-yl)carbonyl]phenyl}-3-cyanopyridin-2-yl)piperazine-1-carboxylate] | 47 | 6.38 | 17 | No IP | –
21 | CN(CC(O)CO)C(=O)c1ccc(-c2cnc(N3CCN(C(=O)OC(C)(C)C)CC3)c(C#N)c2)cc1Cl (centres unmarked) [Example 5-18, tert-butyl 4-(5-{3-chloro-4-[(2,3-dihydroxypropyl) (methyl)carbamoyl]phenyl}-3-cyanopyridin-2-yl)piperazine-1-carboxylate] | 70 | 6.52 | 40 | – | 5.07
22 | CC(C)(C)OC(=O)N1CCN(c2ncc(-c3ccc(C(=O)N(CCO)CCO)c(Cl)c3)cc2C#N)CC1 [Example 5-19, tert-butyl 4-(5-{4-[bis(2-hydroxyethyl)carbamoyl]-3-chlorophenyl}-3-cyanopyridin-2-yl)piperazine-1-carboxylate] | 93 | 6.99 | 68 | – | 5.53
23 | CC(C)(C)OC(=O)N1CCN(c2ncc(-c3ccc(C(=O)N(CCCO)C4CC4)c(Cl)c3)cc2C#N)CC1 [Example 5-20, tert-butyl 4-(5-{3-chloro-4-[cyclopropyl(3-hydroxypropyl)carbamoyl]phenyl}-3-cyanopyridin-2-yl)piperazine-1-carboxylate] | 55 | 6.25 | 31 | – | 5.39
